Laboratory results reported in patent US20180311238A1, “Selective Agonist Of a6 Containing nAChRs” (Saniona A/S, priority 2017, published 2018).

Experiments:
[1] = target: T1, human α3β4 nicotinic receptors (Homo sapiens, UniProt P30926+P32297); test: FLIPR fluorescence-based calcium assay, α3β4; format: cell-based; conditions: FLIPR calcium response relative to nicotine
T1 construct: expressed in transfected cells
Protocol: (§1) The level of agonist activity of 9-methyl-3-pyridin-3-yl-3,9-diaza-bicyclo[3.3.1]nonane was tested in functional fluorescence-based calcium assays using TE671 cells and HEK293 cells stably expressing human α6/α3β2β3^V273S, α3β4 and α4β2 nicotinic receptors.
(§2) Cells were plated on poly-D-lysine coated 384-well microtiter plates and were allowed to proliferate for 24 h. Dye loading was performed by incubating cells with 2 μM fluo-4/AM for 1.5 h at room temperature. Dye not taken up by cells was removed by aspiration followed by three washing cycles with 25 μl of NMDG Ringer buffer (in mM: 140 NMDG, 5 KCl, 1 MgCl2, 10 CaCl2, 10 HEPES, pH 7.4) after which the cells were kept in 25 μl of the same buffer. The microtiter plates were placed in a Fluoremetric Imaging Plate Reader (FLIPR) and subjected to test compound at various concentrations. Background subtracted compound-mediated calcium responses were normalized to 100 μM nicotine control responses and pEC50 as well as relative maximal efficacy values were determined.

[2] = target: T2, neuromuscular α1-containing receptor subtypes (Homo sapiens, UniProt P02708+P07510+Q07001); test: FLIPR fluorescence-based calcium assay, TE671 cells; format: cell-based; conditions: FLIPR calcium response relative to nicotine
T2 construct: endogenous in cells; host or cells: TE671
Protocol: as §1, §2
The neuromuscular nAChRs subtype—composed of α1β1γδ subunits—can be studied in the human medulloblastoma cell line TE671, and the α1 subunit can be specifically labelled with ^3H-α-bungarotoxin.

[3] = target: T3, nAChRs of the α4β2 subtype (Rattus norvegicus, UniProt P09483+P12390); test: In vitro inhibition of 3H-cytisine binding, rat cortex; conditions: ligand 3H-cytisine
T3 construct: from tissue; host or cells: rat cerebral cortex membranes
Protocol: The predominant subtype with high affinity for nicotine is comprised of α4 and β2 subunits. Here, the nicotine agonist ^3H-cytisine is used to selectively label nAChRs of the α4β2 subtype.
Preparations were performed at 0-4° C. Cerebral cortices from male Wistar rats (150-250 g) were homogenized for 20 sec in 15 ml Tris-HCl (50 mM, pH 7.4) containing 120 mM NaCl, 5 mM KCl, 1 mM MgCl2 and 2.5 mM CaCl2 using an Ultra-Turrax homogenizer. The homogenate was centrifuged at 27,000×g for 10 min. The supernatant was discarded and the pellet is re-suspended in fresh buffer and centrifuged a second time. The final pellet was re-suspended in fresh buffer (35 ml per g of original tissue) and used for binding assays.
Aliquots of 500 μl homogenate were added to 25 μl of test solution and 25 μl of ^3H-cytisine (1 nM, final concentration), mixed and incubated for 90 min at 0-4° C. Non-specific binding (5-10% of total binding) was determined using 100 μM (−)-nicotine. […]
Binding was terminated by rapid filtration onto Whatman GF/B glass fibre filters using a Brandel Cell Harvester, followed by seven washes with 2 ml ice-cold buffer. The amount of radioactivity on the filters was determined by conventional liquid scintillation counting using a Tri-Carb™ counter (PerkinElmer Life and Analytical Sciences).
Specific binding was calculated as total binding minus non-specific binding.

[4] = tested on: L-dopa-induced dyskinesia; test: L-dopa-induced dyskinesia (AIMs) in 6-OHDA lesioned rats; format: in vivo, rat
Protocol: Adult male Sprague-Dawley rats (Harlan labs), ˜3 months old and weighing 250-275 grams, were housed in groups of 2 in a temperature- and humidity-controlled colony room that was maintained on a 12 hour light/dark cycle. Food and water were available ad libitum throughout the experiment with the exception that animals were food fasted for 12 hours prior to the surgical (6-OHDA lesion) procedure.
Prior to surgery, all animals were anesthetized and placed in the prone position. The hair was clipped from the head and the surgical site aseptically washed with betadine and alcohol. The animals head was fixed during surgery by a stereotaxic device and continuously anesthetized using isoflurane (1.5-2.0%) via a nosecone attached to the stereotaxic frame. […] The animals were monitored by the surgeon for suitable hemostasis and respiration. […]
For quantification of L-DOPA-induced AIMs, rats were placed in transparent plastic cages and observed during the first minute of every 30-minute period in the 2 hours following the injection of L-DOPA. […]
Each of the four subtypes was scored on a severity scale from 0 to 4. • 0=absent • 1=present during less than half of the observation time • 2=present for more than half of the observation time • 3=present all the time but suppressible by external stimuli • 4=present all the time and not suppressible by external stimuli. […]

T3 sequence (P09483 31-630): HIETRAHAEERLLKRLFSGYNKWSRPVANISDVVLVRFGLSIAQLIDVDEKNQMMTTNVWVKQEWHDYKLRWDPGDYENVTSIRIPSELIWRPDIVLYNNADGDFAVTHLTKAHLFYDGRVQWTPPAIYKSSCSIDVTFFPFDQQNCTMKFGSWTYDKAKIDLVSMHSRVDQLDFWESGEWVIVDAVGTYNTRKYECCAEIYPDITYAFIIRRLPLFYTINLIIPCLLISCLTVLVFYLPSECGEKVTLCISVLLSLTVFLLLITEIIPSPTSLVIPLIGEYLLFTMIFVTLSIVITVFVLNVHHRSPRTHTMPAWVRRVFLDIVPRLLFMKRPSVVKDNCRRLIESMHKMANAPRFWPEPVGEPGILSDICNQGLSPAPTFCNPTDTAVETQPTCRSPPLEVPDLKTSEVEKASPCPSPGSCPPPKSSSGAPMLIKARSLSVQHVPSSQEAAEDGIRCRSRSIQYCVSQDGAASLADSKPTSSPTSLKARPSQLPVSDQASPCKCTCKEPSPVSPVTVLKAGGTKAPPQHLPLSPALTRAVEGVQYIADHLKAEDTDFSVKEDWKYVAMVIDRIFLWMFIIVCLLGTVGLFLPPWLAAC
T3 sequence (P12390 25-500): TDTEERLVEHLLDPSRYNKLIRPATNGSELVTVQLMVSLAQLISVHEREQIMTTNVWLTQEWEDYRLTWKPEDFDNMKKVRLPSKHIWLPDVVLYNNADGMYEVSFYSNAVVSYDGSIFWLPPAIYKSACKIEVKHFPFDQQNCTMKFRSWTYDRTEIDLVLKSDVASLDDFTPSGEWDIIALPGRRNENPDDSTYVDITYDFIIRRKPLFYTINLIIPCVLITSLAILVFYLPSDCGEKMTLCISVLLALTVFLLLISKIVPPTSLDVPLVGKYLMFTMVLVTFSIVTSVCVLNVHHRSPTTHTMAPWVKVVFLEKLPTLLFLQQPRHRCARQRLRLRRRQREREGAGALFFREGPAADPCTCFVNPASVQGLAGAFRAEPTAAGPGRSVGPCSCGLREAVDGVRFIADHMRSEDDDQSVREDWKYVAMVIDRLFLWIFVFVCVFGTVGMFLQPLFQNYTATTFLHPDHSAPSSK
T1 sequence (P32297 32-505): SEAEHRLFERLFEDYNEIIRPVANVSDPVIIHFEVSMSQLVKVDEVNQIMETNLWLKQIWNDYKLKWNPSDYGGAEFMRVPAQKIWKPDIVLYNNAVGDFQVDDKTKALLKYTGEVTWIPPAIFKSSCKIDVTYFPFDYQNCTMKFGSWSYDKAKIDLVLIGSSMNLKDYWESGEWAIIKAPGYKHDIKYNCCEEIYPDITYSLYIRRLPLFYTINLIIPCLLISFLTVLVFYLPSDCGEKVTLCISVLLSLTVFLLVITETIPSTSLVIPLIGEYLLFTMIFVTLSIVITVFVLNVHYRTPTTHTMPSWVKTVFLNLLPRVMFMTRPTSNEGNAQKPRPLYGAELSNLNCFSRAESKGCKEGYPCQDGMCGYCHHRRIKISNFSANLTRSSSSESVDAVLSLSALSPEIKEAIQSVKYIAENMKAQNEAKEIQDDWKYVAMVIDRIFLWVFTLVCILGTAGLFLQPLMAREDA
T1 sequence (P30926 22-498): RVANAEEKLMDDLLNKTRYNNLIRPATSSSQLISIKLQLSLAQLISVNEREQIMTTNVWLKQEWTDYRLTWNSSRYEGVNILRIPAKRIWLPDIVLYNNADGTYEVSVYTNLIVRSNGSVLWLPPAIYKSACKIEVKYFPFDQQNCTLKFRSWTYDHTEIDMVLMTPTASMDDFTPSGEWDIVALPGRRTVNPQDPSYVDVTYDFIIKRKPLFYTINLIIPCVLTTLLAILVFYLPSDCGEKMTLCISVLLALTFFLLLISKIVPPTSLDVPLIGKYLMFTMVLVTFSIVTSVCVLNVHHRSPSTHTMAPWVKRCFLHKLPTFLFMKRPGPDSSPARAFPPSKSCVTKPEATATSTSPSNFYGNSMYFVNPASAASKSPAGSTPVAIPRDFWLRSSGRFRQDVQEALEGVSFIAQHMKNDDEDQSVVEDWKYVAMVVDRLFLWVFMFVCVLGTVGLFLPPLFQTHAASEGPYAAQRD
T2 sequence (P02708 21-457): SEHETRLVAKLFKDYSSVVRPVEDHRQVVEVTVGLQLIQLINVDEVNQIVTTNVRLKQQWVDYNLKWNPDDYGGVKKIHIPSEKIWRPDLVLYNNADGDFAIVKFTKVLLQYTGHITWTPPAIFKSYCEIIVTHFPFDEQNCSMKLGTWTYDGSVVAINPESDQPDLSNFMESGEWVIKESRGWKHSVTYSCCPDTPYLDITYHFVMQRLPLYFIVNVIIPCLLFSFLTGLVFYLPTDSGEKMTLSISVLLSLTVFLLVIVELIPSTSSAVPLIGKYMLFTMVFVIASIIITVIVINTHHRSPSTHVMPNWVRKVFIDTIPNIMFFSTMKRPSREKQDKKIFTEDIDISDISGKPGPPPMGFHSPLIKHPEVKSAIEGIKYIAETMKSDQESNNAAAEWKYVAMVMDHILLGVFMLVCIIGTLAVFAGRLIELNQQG
T2 sequence (P11230 24-501 partner): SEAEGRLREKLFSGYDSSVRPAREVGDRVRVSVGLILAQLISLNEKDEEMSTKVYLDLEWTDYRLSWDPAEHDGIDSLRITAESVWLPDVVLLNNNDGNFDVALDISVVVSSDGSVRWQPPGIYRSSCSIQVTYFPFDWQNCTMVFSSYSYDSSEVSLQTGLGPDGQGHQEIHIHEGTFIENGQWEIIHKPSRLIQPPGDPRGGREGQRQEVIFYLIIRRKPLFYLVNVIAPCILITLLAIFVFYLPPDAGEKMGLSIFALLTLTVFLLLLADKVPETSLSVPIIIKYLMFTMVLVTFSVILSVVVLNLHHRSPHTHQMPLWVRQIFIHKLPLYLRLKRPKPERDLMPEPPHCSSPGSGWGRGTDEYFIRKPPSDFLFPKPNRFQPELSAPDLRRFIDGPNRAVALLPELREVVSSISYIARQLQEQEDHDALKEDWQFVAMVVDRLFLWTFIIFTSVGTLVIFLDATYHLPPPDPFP
T2 sequence (P07510 23-517): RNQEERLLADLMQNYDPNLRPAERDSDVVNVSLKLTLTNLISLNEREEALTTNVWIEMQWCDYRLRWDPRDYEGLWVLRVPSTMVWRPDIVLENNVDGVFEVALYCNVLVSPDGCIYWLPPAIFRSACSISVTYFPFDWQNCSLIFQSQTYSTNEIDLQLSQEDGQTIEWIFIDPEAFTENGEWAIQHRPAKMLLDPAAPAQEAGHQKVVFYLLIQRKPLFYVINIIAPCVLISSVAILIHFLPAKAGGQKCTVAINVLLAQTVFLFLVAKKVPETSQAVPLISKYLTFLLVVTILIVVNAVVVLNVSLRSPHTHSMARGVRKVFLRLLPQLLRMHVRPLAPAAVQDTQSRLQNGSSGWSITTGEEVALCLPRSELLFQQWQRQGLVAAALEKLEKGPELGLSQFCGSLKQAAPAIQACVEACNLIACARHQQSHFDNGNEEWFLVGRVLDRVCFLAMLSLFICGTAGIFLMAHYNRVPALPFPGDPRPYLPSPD
T2 sequence (Q07001 22-517): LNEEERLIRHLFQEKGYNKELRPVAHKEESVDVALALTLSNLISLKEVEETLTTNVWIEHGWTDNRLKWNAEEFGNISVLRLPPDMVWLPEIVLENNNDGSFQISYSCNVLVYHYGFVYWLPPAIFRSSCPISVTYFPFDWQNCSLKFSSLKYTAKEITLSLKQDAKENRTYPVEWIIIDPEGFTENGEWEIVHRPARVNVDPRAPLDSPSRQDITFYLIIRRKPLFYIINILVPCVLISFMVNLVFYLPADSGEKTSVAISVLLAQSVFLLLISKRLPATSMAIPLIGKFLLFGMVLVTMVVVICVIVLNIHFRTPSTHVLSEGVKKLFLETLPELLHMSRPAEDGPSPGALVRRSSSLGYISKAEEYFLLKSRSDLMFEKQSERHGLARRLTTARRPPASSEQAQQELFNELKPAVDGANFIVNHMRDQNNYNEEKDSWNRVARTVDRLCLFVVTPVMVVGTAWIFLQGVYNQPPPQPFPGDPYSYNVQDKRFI

CN1C2CCCC1CN(c1cccnc1)C2 [9-methyl-3-pyridin-3-yl-3,9-diaza-bicyclo[3.3.1]nonane]
efficacy [1]: practically no efficacy | efficacy [2]: practically no efficacy | Ki [3]: 3.1 nM | L-dopa-induced AIMs, follow-up dose ([4]; 3.0 mg/kg): did not further decrease L-dopa-induced AIMs | L-dopa-induced AIMs ([4]; 0.1, 0.3, 1.0 mg/kg sc 30 minutes prior to L-dopa (8 mg/kg)): significant, dose-related decrease in AIMs with the 0.3 and 1.0 mg/kg doses reaching statistical significance relative to saline controls
